Data from patent US20250195503A1, “TETRACYCLIC COMPOUND AND USE THEREOF” (SHANGHAI SHIJIANG BIOTECHNOLOGY TECHNOLOGY CO., LTD., priority 2022, published 2025).

What was measured:
ov-NNMT NCI-H82 cell = experiment: Inhibitory effect (IC50) on ov-NNMT NCI-H82 cell, Promega CellTiter-Glo kit; assay type: cell-based; conditions: Homo sapiens, NNMT protein overexpressed NCI-H82 cell
mPTP-inactive Daoy cell = experiment: Inhibitory effect (IC50) on mPTP-inactive Daoy cell (PPIF shRNA), Promega CellTiter-Glo kit; assay type: cell-based; conditions: Homo sapiens, Daoy cell transfected with virus vector carrying PPIF shRNA
Con-NCI-H82 cell = experiment: Inhibitory effect (IC50) on Con-NCI-H82 cell, Promega CellTiter-Glo kit; assay type: cell-based; conditions: Homo sapiens, NCI-H82 cell transfected with empty virus vector
sh-DNMT1 NCI-H82 cell = experiment: Inhibitory effect (IC50) on sh-DNMT1 NCI-H82 cell, Promega CellTiter-Glo kit; assay type: cell-based; conditions: Homo sapiens, DNMT1 knocked down NCI-H82 cell
mPTP-active Daoy cell = experiment: Inhibitory effect (IC50) on mPTP-active Daoy cell, Promega CellTiter-Glo kit; assay type: cell-based; conditions: Homo sapiens, Daoy cell transfected with empty virus vector without PPIF shRNA
Daoy cell = experiment: Mitochondria membrane potential difference by TMRM in Daoy cell; assay type: cell-based, human; conditions: CsA −, H2O2 +
From the text: The mitochondria permeability transition pore (mPTP) was a non-specific channel on the inner membrane of mitochondria, which could allow small molecules with molecular less than 1.5KD to pass freely, and its activity was affected by peroxides (such as H2O2), pH and calcium ions in mitochondria. […] For cells with active mitochondria permeability transition pore, adding peroxide (such as H2O2) could increase the activity of mitochondria permeability transition pore, resulting in a decrease in mitochondria membrane potential.

[1] = system: Daoy cell transfected with virus vector carrying shRNA that could specificly induce the degradation of PPIF mRNA; experiment: Mitochondria membrane potential difference by TMRM in Daoy cell transfected with virus vector carrying PPIF shRNA; assay type: cell-based, human; conditions: CsA −, H2O2 +
[2] = system: Daoy cell transfected with empty virus vector without carrying shRNA; experiment: Mitochondria membrane potential difference by TMRM in Daoy cell transfected with empty virus vector; assay type: cell-based, human; conditions: CsA −, H2O2 +

IC50 (ov-NNMT NCI-H82 cell) [µM] | IC50 (Con-NCI-H82 cell) [µM] | IC50 (sh-DNMT1 NCI-H82 cell) [µM] | Structure (SMILES) | IC50 (mPTP-inactive Daoy cell) [µM] | IC50 (mPTP-active Daoy cell) [µM] | Relative TMRM signal intensity (%), mean value (Daoy cell) [%] | Relative TMRM signal intensity (%), mean value [1] [%] | Relative TMRM signal intensity (%), mean value [2] [%]
10.1 | 3.27 | 12.3 | CCCCC1c2c(ccc(OC)c2OC)C=C2c3cc4c(cc3CCN21)OCO4 (stereo not shown) [compound AB31875] | 6.25 | 14.6 | – | – | –
7.04 | 2.33 | 14.3 | COc1ccc2c(c1OC)C(C(Cl)(Cl)Cl)N1CCc3cc4c(cc3C1=C2)OCO4 (stereo not shown) [compound AB31714] | 12.5 | 26.7 | – | – | –
2.66 | 0.72 | 3.65 | CCCCCCC1c2c(ccc(OC)c2OC)C=C2c3cc4c(cc3CCN21)OCO4 (stereo not shown) [compound AB35435] | 0.69 | 1.32 | – | – | –
– | – | – | OO [H2O2] | – | – | 82 | 95 | 79
6.55 | 2.06 | 5.73 | C=CCC1c2c(ccc(OC)c2OC)C=C2c3cc4c(cc3CCN21)OCO4 (stereo not shown) [compound AB31891] | 3.12 | 6.22 | – | – | –
11.6 | 5.16 | 18.8 | C=CCCC1c2c(ccc(OC)c2OC)C=C2c3cc4c(cc3CCN21)OCO4 (stereo not shown) [compound AB31882] | 9.22 | 19.3 | – | – | –
4.13 | 1.12 | 5.99 | COc1ccc2c(c1OC)C(C(C)C)N1CCc3cc4c(cc3C1=C2)OCO4 (stereo not shown) [compound AB31885] | 3.17 | 6.43 | – | – | –
8.48 | 3.22 | 9.66 | COc1ccc2c(c1OC)C(C)N1CCc3cc4c(cc3C1=C2)OCO4 (stereo not shown) [compound AB31886] | 5.74 | 14.3 | – | – | –
5.56 | 2.18 | 5.98 | CCC1c2c(ccc(OC)c2OC)C=C2c3cc4c(cc3CCN21)OCO4 (stereo not shown) [compound AB31883] | 2.45 | 5.64 | – | – | –
– | – | 6.58 | COc1ccc2c(c1OC)C(C1CCCC1)N1CCc3cc4c(cc3C1=C2)OCO4 (stereo not shown) [compound AB31900] | 2.56 | 5.37 | – | – | –
– | – | 14.6 | COc1ccc2c(c1OC)CN1CCc3cc4c(cc3C1=C2)OCO4 [compound AB31713] | 12.5 | 25 | – | – | –
6.32 | 2.31 | 8.64 | CCCC1c2c(ccc(OC)c2OC)C=C2c3cc4c(cc3CCN21)OCO4 (stereo not shown) [compound AB31884] | 2.71 | 5.76 | – | – | –
16.8 | 6.91 | 24.2 | COc1ccc2c(c1OC)C(C(F)(F)F)N1CCc3cc4c(cc3C1=C2)OCO4 (stereo not shown) [compound AB35403] | 28.6 | 60.1 | – | – | –
– | – | – | COc1ccc2c(c1OC)C(C1CCCCC1)N1CCc3cc4c(cc3C1=C2)OCO4 (stereo not shown) [compound AB31893] | 2.5 | 5.14 | – | – | –
